# Reference: patent EP4610269A1, “UROKINASE PLASMINOGEN ACTIVATOR SURFACE RECEPTOR (UPAR) LIGANDS FOR DIAGNOSTIC OR THERAPEUTIC USE” (3B Pharmaceuticals GmbH, priority 2024, dated 2025)
# Where a SMILES comes first, the peptide text is derived from it. Bridges are numbered along the chain shown (N, C = ends). [ ]: non-standard residue; d: D form. The star is where a group is joined. CH3O(CH2CH2O)11CH2CH2CO = COCCOCCOCCOCCOCCOCCOCCOCCOCCOCCOCCOCCC(=O)*; DOTA = O=C(O)CN1CCN(CC(=O)O)CCN(CC(=O)*)CCN(CC(=O)O)CC1; Oic = O=C(O)[C@@H]1C[C@@H]2CCCC[C@@H]2N1; Phe(4-CN) = N#Cc1ccc(C[C@H](N)C(=O)O)cc1; Pro(cis-4-F) = O=C(O)[C@@H]1C[C@H](F)CN1; Pro(4R-NH2) = N[C@H]1CN[C@H](C(=O)O)C1; cisHyp = O=C(O)[C@@H]1C[C@H](O)CN1; Ala(cPr) = N[C@@H](CC1CC1)C(=O)O; Hyp = O=C(O)[C@@H]1C[C@@H](O)CN1; tBuAla = CC(C)(C)C[C@H](N)C(=O)O; Pentanoyl(4-Me) = CC(C)CCC(=O)*; Cha = N[C@@H](CC1CCCCC1)C(=O)O; Cit = NC(=O)NCCC[C@H](N)C(=O)O; NMeL = CN[C@@H](CC(C)C)C(=O)O; Butoxycarbonyl = CCCCOC(=O)*; Orn = NCCC[C@H](N)C(=O)O; Thz = O=C(O)[C@@H]1CSCN1; dNMeA = CN[C@H](C)C(=O)O; Nva = CCC[C@H](N)C(=O)O; Pentanoyl = CCCCC(=O)*
# Key:
# [1] = biological target: T1, uPAR-expressing HEC-265 human endometrial adenocarcinoma cells (Homo sapiens, UniProt Q03405); assay: Competitive FACS binding assay; settings: pIC50 category of FACS binding
# T1 construct: Cell surface uPAR-expressing HEC-265 human endometrial adenocarcinoma cells; host or cells: HEC-265
# T1 sequence (Q03405 23-335): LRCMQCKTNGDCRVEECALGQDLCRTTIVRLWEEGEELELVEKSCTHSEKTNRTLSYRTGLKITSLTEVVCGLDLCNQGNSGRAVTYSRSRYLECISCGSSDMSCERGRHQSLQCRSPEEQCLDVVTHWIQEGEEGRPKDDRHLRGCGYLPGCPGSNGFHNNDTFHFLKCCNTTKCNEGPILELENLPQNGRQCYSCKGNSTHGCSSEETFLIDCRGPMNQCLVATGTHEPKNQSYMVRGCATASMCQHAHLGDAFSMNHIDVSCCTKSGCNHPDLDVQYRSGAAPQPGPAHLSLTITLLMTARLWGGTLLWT
# Summary of the method: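 Competitive displacement of a 10 nM biotinylated peptide from HEC-265 cells (1 h, 4 °C, PBS/1% BSA), detected via APC-streptavidin by flow cytometry. pIC50 from four-parameter logistic fit of median fluorescence versus concentration.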
# [2] = biological target: T2, human uPAR (uPAR-Fc) (Homo sapiens, UniProt Q03405); assay: Surface plasmon resonance (SPR) assay, single cycle kinetics; format: binding; settings: pKD category for uPAR SPR activity assay; uPAR-Fc on Protein A-Chip, single cycle kinetics, 25°C; read-out: pKD CAT (converted)
# T2 construct: comprising amino acids Leu23-Arg303 according to UniProt entry Q03405.1; purchased R&D Systems 10378-UK-100
# T2 sequence (Q03405 23-303): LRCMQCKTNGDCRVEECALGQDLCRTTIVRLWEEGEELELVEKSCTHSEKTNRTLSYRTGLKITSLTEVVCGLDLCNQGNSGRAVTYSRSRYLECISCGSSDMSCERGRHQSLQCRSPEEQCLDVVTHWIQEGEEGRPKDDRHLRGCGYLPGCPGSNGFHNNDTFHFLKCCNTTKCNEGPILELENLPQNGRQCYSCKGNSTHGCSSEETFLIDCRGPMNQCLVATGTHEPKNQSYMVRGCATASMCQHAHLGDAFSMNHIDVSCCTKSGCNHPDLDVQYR
# Summary of the method: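 uPAR-Fc (Leu23-Arg303 extracellular domains, human IgG1 Fc) captured on Protein A chip to ~2000 RU; single-cycle kinetics at 25°C in HEPES running buffer pH 7.4 with 0.1% DMSO. KD from double-referenced sensorgrams fitted to 1:1 Langmuir model, reported as pKD.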
IC50 [1] [nM],Kd [2] [nM],SMILES
≤ 10,< 1.58,"CCCCC(=O)N[C@H]1CSSC[C@@H](C(N)=O)NC(=O)[C@H](CCC)NC(=O)[C@H](CC(C)(C)C)NC(=O)[C@@H]2C[C@@H](O)CN2C(=O)[C@@H]2CCCN2C(=O)[C@H](Cc2ccccc2)NC(=O)[C@H](Cc2ccc(O)cc2)NC(=O)[C@H](CCC(N)=O)NC(=O)[C@H](CCCNC(=N)N)NC1=O [UPAR-370, Pent-[Cys-Arg-Gln-Tyr-Phe-Pro-Hyp-Npg-Nva-Cys]-NH2] (Pentanoyl-CRQYFP[Hyp][tBuAla][Nva]C-NH2; disulfide 1-10)"
≥ 126,> 100,"CC[C@H](C)[C@@H]1NC(=O)[C@@H]2C[C@@H](O)CN2C(=O)[C@@H]2CCCN2C(=O)[C@H](Cc2ccccc2)NC(=O)[C@H](Cc2ccc(O)cc2)NC(=O)[C@H](CCC(N)=O)NC(=O)[C@H](CCCNC(N)=O)NC(=O)[C@@H](NC(=O)[C@H](CC(C)C)NC(=O)CN2CCN(CC(=O)O)CCN(CC(=O)O)CCN(CC(=O)O)CC2)CSSC[C@@H](C(N)=O)NC(=O)[C@H](CC(C)C)N(C)C1=O [UPAR-371, DOTA-Leu-[Cys-Cit-Gln-Tyr-Phe-Pro-Hyp-Ile-Nml-Cys]-NH2] ({DOTA}-LC[Cit]QYFP[Hyp]I[NMeL]C-NH2; disulfide 2-11)"
≤ 10,< 1.58,"CCC[C@@H]1NC(=O)[C@H]([C@@H](C)CC)NC(=O)[C@@H]2C[C@@H](O)CN2C(=O)[C@@H]2CCCN2C(=O)[C@H](Cc2ccccc2)NC(=O)[C@H](Cc2ccc(O)cc2)NC(=O)[C@H](CCC(N)=O)NC(=O)[C@H](CCCNC(=N)N)NC(=O)[C@@H](NC(=O)[C@H](CC2CCCCC2)NC(C)=O)CSSC[C@@H](C(N)=O)NC1=O [UPAR-372, Ac-Cha-[Cys-Arg-Gln-Tyr-Phe-Pro-Hyp-Ile-Nva-Cys]-NH2] (Ac-[Cha]CRQYFP[Hyp]I[Nva]C-NH2; disulfide 2-11)"
≤ 10,< 1.58,"CCCCC(=O)N[C@H]1CSSC[C@@H](C(N)=O)NC(=O)[C@H](CCC)NC(=O)[C@H]([C@@H](C)CC)NC(=O)[C@@H]2C[C@@H](O)CN2C(=O)[C@@H]2CCCN2C(=O)[C@H](Cc2ccccc2)NC(=O)[C@H](CC2CCCCC2)NC(=O)[C@H](CCC(N)=O)NC(=O)[C@H](CCCNC(=N)N)NC1=O [UPAR-373, Pent-[Cys-Arg-Gln-Cha-Phe-Pro-Hyp-Ile-Nva-Cys]-NH2] (Pentanoyl-CRQ[Cha]FP[Hyp]I[Nva]C-NH2; disulfide 1-10)"
≤ 10,< 1.58,"CC[C@H](C)[C@@H]1NC(=O)[C@@H](C)NC(=O)[C@@H]2CSCN2C(=O)[C@H](Cc2ccccc2)NC(=O)[C@H](Cc2ccc(O)cc2)NC(=O)[C@H](CCC(N)=O)NC(=O)[C@H](CCCNC(N)=O)NC(=O)[C@@H](NC(=O)CCC(C)C)CSSC[C@@H](C(N)=O)NC(=O)[C@H](CC(C)C)NC1=O [UPAR-375, iHex-[Cys-Cit-Gln-Tyr-Phe-Eaz-ala-Ile-Leu-Cys]-NH2] ({Pentanoyl(4-Me)}-C[Cit]QYF[Thz][dA]ILC-NH2; disulfide 1-10)"
≤ 10,< 1.58,"CCCCC(=O)N[C@H]1CSSC[C@@H](C(N)=O)NC(=O)[C@H](CCC)NC(=O)[C@H]([C@@H](C)CC)NC(=O)[C@@H]2C[C@@H](N)CN2C(=O)[C@@H]2CCCN2C(=O)[C@H](Cc2ccccc2)NC(=O)[C@H](Cc2ccc(O)cc2)NC(=O)[C@H](CCCCNC(=O)CN2CCN(CC(=O)O)CCN(CC(=O)O)CCN(CC(=O)O)CC2)NC(=O)[C@H](CCCNC(N)=O)NC1=O [UPAR-377, Pent-[Cys-Cit-Lys(DOTA)-Tyr-Phe-Pro-Tap-Ile-Nva-Cys]-NH2] (Pentanoyl-C[Cit]K(DOTA)YFP[Pro(4R-NH2)]I[Nva]C-NH2; disulfide 1-10)"
≤ 10,< 1.58,"CCCCC(=O)N[C@H]1CSSC[C@@H](C(N)=O)NC(=O)[C@H](CC2CC2)NC(=O)[C@H]([C@@H](C)CC)NC(=O)[C@@H]2C[C@@H](O)CN2C(=O)[C@@H]2CCCN2C(=O)[C@H](Cc2ccccc2)NC(=O)[C@H](Cc2ccc(O)cc2)NC(=O)[C@H](CCC(N)=O)NC(=O)[C@H](CCCNC(=N)N)NC1=O [UPAR-379, Pent-[Cys-Arg-Gln-Tyr-Phe-Pro-Hyp-Ile-Cpra-Cys]-NHz] (Pentanoyl-CRQYFP[Hyp]I[Ala(cPr)]C-NH2; disulfide 1-10)"
≤ 10,1.58 to 10,"CCCCC(=O)N[C@H]1CSSC[C@@H](C(N)=O)NC(=O)[C@H](COC)NC(=O)[C@H]([C@@H](C)CC)NC(=O)[C@@H]2C[C@@H](O)CN2C(=O)[C@@H]2CCCN2C(=O)[C@H](Cc2ccccc2)NC(=O)[C@H](Cc2ccc(O)cc2)NC(=O)[C@H](CCCCNC(=O)CN2CCN(CC(=O)O)CCN(CC(=O)O)CCN(CC(=O)O)CC2)NC(=O)[C@H](CCCNC(N)=O)NC1=O [UPAR-380, Pent-[Cys-Cit-Lys(DOTA)-Tyr-Phe-Pro-Hyp-Ile-Ser(Me)-Cys]-NH2] (Pentanoyl-C[Cit]K(DOTA)YFP[Hyp]IS(Me)C-NH2; disulfide 1-10)"
≤ 10,< 1.58,"CC[C@H](C)[C@@H]1NC(=O)[C@H](C)NC(=O)[C@@H]2CCCN2C(=O)[C@H](Cc2ccccc2)NC(=O)[C@H](Cc2ccc(O)cc2)NC(=O)[C@H](CCC(N)=O)NC(=O)[C@H](CCCNC(=N)N)NC(=O)[C@@H](NC(=O)[C@H](CC(C)C)NC(C)=O)CSSC[C@@H](C(N)=O)NC(=O)[C@H](CC(C)C)NC1=O [UPAR-381, Ac-Leu-[Cys-Arg-Gln-Tyr-Phe-Pro-Ala-Ile-Leu-Cys]-NH2] (Ac-LCRQYFPAILC-NH2; disulfide 2-11)"
≤ 10,< 1.58,"CCCCC(=O)N[C@H]1CSSC[C@@H](C(N)=O)NC(=O)[C@H](CCC)NC(=O)[C@H]([C@@H](C)CC)NC(=O)[C@@H]2C[C@@H](O)CN2C(=O)[C@@H]2CCCN2C(=O)[C@H](Cc2ccccc2)NC(=O)[C@H](Cc2ccc(O)cc2)NC(=O)[C@H](CCCCNC(=O)CN2CCN(CC(=O)O)CCN(CC(=O)O)CCN(CC(=O)O)CC2)NC(=O)[C@H](CCCNC(=O)CCOCCOCCOCCOCCOCCOCCOCCOCCOCCOCCOCCOC)NC1=O [UPAR-383, Pent-[Cys-Orn(mPEG12)-Lys(DOTA)-Tyr-Phe-Pro-Hyp-Ile-Nva-Cys]-NHz] (Pentanoyl-C[Orn](CH3O(CH2CH2O)11CH2CH2CO)K(DOTA)YFP[Hyp]I[Nva]C-NH2; disulfide 1-10)"
≤ 10,< 1.58,"CCCCC(=O)N[C@H]1CSSC[C@@H](C(N)=O)NC(=O)[C@H](CCC)NC(=O)[C@H]([C@@H](C)CC)NC(=O)[C@@H](C)N(C)C(=O)[C@@H]2CCCN2C(=O)[C@H](Cc2ccccc2)NC(=O)[C@H](Cc2ccc(O)cc2)NC(=O)[C@H](CCCCNC(=O)CN2CCN(CC(=O)O)CCN(CC(=O)O)CCN(CC(=O)O)CC2)NC(=O)[C@H](CCCNC(N)=O)NC1=O [UPAR-384, Pent-[Cys-Cit-Lys(DOTA)-Tyr-Phe-Pro-nma-Ile-Nva-Cys]-NH2] (Pentanoyl-C[Cit]K(DOTA)YFP[dNMeA]I[Nva]C-NH2; disulfide 1-10)"
≥ 126,10 to 100,"CCCCC(=O)N[C@H]1CSSC[C@@H](C(N)=O)NC(=O)[C@H](CCC)NC(=O)[C@H](CCCCN)NC(=O)[C@@H]2C[C@@H](O)CN2C(=O)[C@@H]2CCCN2C(=O)[C@H](Cc2ccccc2)NC(=O)[C@H](Cc2ccc(O)cc2)NC(=O)[C@H](CCC(N)=O)NC(=O)[C@H](CCCNC(=N)N)NC1=O [UPAR-385, Pent-[Cys-Arg-Gln-Tyr-Phe-Pro-Hyp-Lys-Nva-Cys]-NH2] (Pentanoyl-CRQYFP[Hyp]K[Nva]C-NH2; disulfide 1-10)"
≤ 10,< 1.58,"CCCCC(=O)N[C@H]1CSSC[C@@H](C(N)=O)NC(=O)[C@H](CCC)NC(=O)[C@H]([C@@H](C)CC)NC(=O)[C@@H]2C[C@@H](O)CN2C(=O)[C@@H]2C[C@@H]3CCCC[C@@H]3N2C(=O)[C@H](Cc2ccccc2)NC(=O)[C@H](Cc2ccc(O)cc2)NC(=O)[C@H](CCC(N)=O)NC(=O)[C@H](CCCNC(=N)N)NC1=O [UPAR-387, Pent-[Cys-Arg-Gln-Tyr-Phe-Oic-Hyp-Ile-Nva-Cys]-NH2] (Pentanoyl-CRQYF[Oic][Hyp]I[Nva]C-NH2; disulfide 1-10)"
≤ 10,1.58 to 10,"CCCCC(=O)N[C@H]1CSSC[C@@H](C(N)=O)NC(=O)[C@H](CCC)NC(=O)[C@H]([C@@H](C)CC)NC(=O)[C@@H]2C[C@@H](O)CN2C(=O)[C@@H]2C[C@H](O)CN2C(=O)[C@H](Cc2ccccc2)NC(=O)[C@H](Cc2ccc(O)cc2)NC(=O)[C@H](CCCCNC(=O)CN2CCN(CC(=O)O)CCN(CC(=O)O)CCN(CC(=O)O)CC2)NC(=O)[C@H]([C@@H](C)O)NC1=O [UPAR-388, Pent-[Cys-Thr-Lys(DOTA)-Tyr-Phe-Chy-Hyp-Ile-Nva-Cys]-NH2] (Pentanoyl-CTK(DOTA)YF[cisHyp][Hyp]I[Nva]C-NH2; disulfide 1-10)"

SMILES,IC50 [1] [nM],Kd [2] [nM]
"CCCCOC(=O)N[C@H]1CSSC[C@@H](C(N)=O)NC(=O)[C@H](CCC)NC(=O)[C@H]([C@@H](C)CC)NC(=O)[C@@H]2C[C@@H](O)CN2C(=O)[C@@H]2C[C@H](F)CN2C(=O)[C@H](Cc2ccc(C#N)cc2)NC(=O)[C@H](Cc2ccc(O)cc2)NC(=O)[C@H](CCCCNC(=O)CN2CCN(CC(=O)O)CCN(CC(=O)O)CCN(CC(=O)O)CC2)NC(=O)[C@H]([C@@H](C)O)NC1=O [UPAR-378, Butoc-[Cys-Thr-Lys(DOTA)-Tyr-Pnf-4Cfp-Hyp-Ile-Nva-Cys]-NH2] (Butoxycarbonyl-CTK(DOTA)Y[Phe(4-CN)][Pro(cis-4-F)][Hyp]I[Nva]C-NH2; disulfide 1-10)",≤ 10,< 1.58
